Here are results for 26 compounds from patent US7320972B2, “4-Biarylyl-1-phenylazetidin-2-ones” (Microbia, Inc., priority 2003, dated 2008).

Data set [1] concerns cholesterol absorption (serum 3H-cholesterol). The experiment in a line: In Vivo Assay of Hypolipidemic Agents using the Rat Cholesterol Absorption Model. Details: species or system Sprague-Dawley rats. The settings on record: peroral; for inhibition in vivo at 1 mg/kg: po, serum 3H-cholesterol 3 h after cholesterol dose, vs vehicle control; for % inhibition at 10 mg/kg: 10 mg/kg (footnote 1), serum 3H-cholesterol vs vehicle control. The essentials:
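Female Sprague-Dawley rats (150–250 g, 4–6 per group) were fasted overnight and dosed orally with compound in olive oil or vehicle. Thirty minutes later they received 3–5 μCi 3H-cholesterol orally in olive oil, and serum radioactivity was measured at 3 h. % inhibition = 100×(1−Ctest/Cctrl) at a fixed dose; ED50 is the dose giving half-maximal effect.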

The structures appear in SMILES notation.

A word on the inhibition in vivo: it is the share of the control response that was lost under treatment. Read a high inhibition in vivo as strong suppression. The melting point is the temperature of the solid-liquid transition. `O=C1[C@H](CC[C@H](O)c2ccc(F)cc2)[C@@H](c2ccc(-c3ccccc3O)cc2)N1c1ccc(F)cc1` [Example 7, (3R,4S)-1-(4-fluorophenyl)-3-[(3S)-3-(4-fluorophenyl)-3-hydroxypropyl]-4-(2′-hydroxybiphenyl-4-yl)azetidin-2-one] displayed a melting point of 101 °C. This compound registered an inhibition in vivo at 1 mg/kg in data set [1] of 30%.
`O=C1[C@H](CC[C@H](O)c2ccc(F)cc2)[C@@H](c2ccc(O)c(-c3ccccc3)c2)N1c1ccc(F)cc1` [Example 6, (3R,4S)-1-(4-fluorophenyl)-3-[(3S)-3-(4-fluorophenyl)-3-hydroxypropyl]-4-(6-hydroxybiphenyl-3-yl)azetidin-2-one] returned a melting point of 113 °C.
Compound `CS(=O)(=O)c1ccc(-c2ccc([C@@H]3[C@@H](CC[C@H](O)c4ccc(F)cc4)C(=O)N3c3ccc(F)cc3)cc2)cc1` [Example 8, (3R,4S)-1-(4-fluorophenyl)-3-[(3S)-3-(4-fluorophenyl)-3-hydroxypropyl]-4-[4′-(methylsulfonyl)biphenyl-4-yl]azetidin-2-one] registered a melting point of 111 °C. This compound also came in with an inhibition in vivo at 1 mg/kg in data set [1] of 53%.
As for `O=C1[C@H](CC[C@H](O)c2ccc(F)cc2)[C@@H](c2ccc(-c3ccc(O)cc3)cc2)N1c1ccc(F)cc1` [Example 2, (3R,4S)-1-(4-fluorophenyl)-3-[(3S)-3-(4-fluorophenyl)-3-hydroxypropyl]-4-(4′-hydroxybiphenyl-4-yl)azetidin-2-one], the melting point is 110 °C. The “% inhibition at 10 mg/kg” value in data set [1] is given as 54^1%.
For `CC(C)Oc1cccc(-c2ccc([C@@H]3[C@@H](CC[C@H](O)c4ccc(F)cc4)C(=O)N3c3ccc(F)cc3)cc2)c1` [Example 105, (3R,4S)-1-(4-fluorophenyl)-3-[(3S)-3-(4-fluorophenyl)-3-hydroxypropyl]-4-(3′-isopropoxybiphenyl-4-yl)azetidin-2-one], 1 mg/kg produced 15% inhibition in vivo in data set [1].
Same read-out and setting: for `O=C1[C@H](CC[C@H](O)c2ccc(F)cc2)[C@@H](c2ccc(-c3cccc(OC[C@H]4OC(O)[C@H](O)[C@@H](O)[C@@H]4O)c3)cc2)N1c1ccc(F)cc1` (stereo partly drawn) [Example 76, 6-O-(4′-{(2S,3R)-1-(4-Fluorophenyl)-3-[(3S)-3-(4-fluorophenyl)-3-hydroxypropyl]-4-oxoazetidin-2-yl}biphenyl-3-yl)-D-glucopyranose] the value was 56%; for `O=C1[C@H](CC[C@H](O)c2ccc(F)cc2)[C@@H](c2ccc(-c3cccc(O)c3)cn2)N1c1ccccc1` [Example 49, (3R,4S)-3-[(3S)-3-(4-Fluorophenyl)-3-hydroxypropyl]-4-[5-(3-hydroxyphenyl)pyridin-2-yl]-1-phenylazetidin-2-one], 30%.
Consider `O=C(O)[C@@H]1O[C@H](Oc2cccc(-c3ccc([C@@H]4[C@@H](CC[C@H](O)c5ccc(F)cc5)C(=O)N4c4ccc(F)cc4)cc3)c2)[C@@H](O)[C@H](O)[C@H]1O` [Example 20, 4′-{(2S,3R)-1-(4-fluorophenyl)-3-[(3S)-3-(4-fluorophenyl)-3-hydroxypropyl]-4-oxoazetidin-2-yl}biphenyl-3-yl β-L-glucopyranosiduronic Acid], for which, in data set [1], the inhibition in vivo at 1 mg/kg was 59%.
The compound `O=C(O)c1ccc(-c2ccc([C@@H]3[C@@H](CC[C@H](O)c4ccc(F)cc4)C(=O)N3c3ccc(F)cc3)cc2)cc1` [Example 22, 4′-{(2S,3R)-1-(4-fluorophenyl)3-[(3S)-3-(4-fluorophenyl)-3-hydroxypropyl]-4-oxoazetidin-2-yl]biphenyl-4-carboxylic acid] came in with an inhibition in vivo at 1 mg/kg in data set [1] of 52%.
For the compound `O=C1[C@H](CC[C@H](O)c2ccc(F)cc2)[C@@H](c2ccc(-c3cccc([N+](=O)[O-])c3)cc2)N1c1ccc(F)cc1` [Example 23, (3R,4S)-1-(4-fluorophenyl)-3-[(3S)-3-(4-fluorophenyl)-3-hydroxypropyl]-4-(3′-nitrobiphenyl-4-yl)azetidin-2-one], the “% inhibition at 10 mg/kg” value in data set [1] is given as 54^1%.
On to `Cc1ccccc1-c1ccc([C@@H]2[C@@H](CC[C@H](O)c3ccc(F)cc3)C(=O)N2c2ccc(F)cc2)cc1` [Example 98, (3R,4S)-1-(4-fluorophenyl)-3-[(3S)-3-(4-fluorophenyl)-3-hydroxypropyl]-4-(2′-methylbiphenyl-4-yl)azetidin-2-one], for which 1 mg/kg produced 7% inhibition in vivo in data set [1].
Same read-out and setting: for `O=C1[C@H](CC[C@H](O)c2ccc(F)cc2)[C@@H](c2ccc(-c3cccc(C(F)(F)F)c3)cc2)N1c1ccc(F)cc1` [Example 92, (3R,4S)-1-(4-fluorophenyl)-3-[(3S)-3-(4-fluorophenyl)-3-hydroxypropyl]-4-[3′-(trifluoromethyl)biphenyl-4-yl]azetidin-2-one] the value was 17%; for `CN(C)c1ccc(-c2ccc([C@@H]3[C@@H](CC[C@H](O)c4ccc(F)cc4)C(=O)N3c3ccc(F)cc3)cc2)cc1` [Example 17, (3R,4S)-4-[4′(dimethylamino)biphenyl-4-yl]-1-(4-fluorophenyl)-3-[(3S)-3-(4-fluorophenyl)-3-hydroxypropyl]azetidin-2-one], 43%.
Same read-out and setting: for `O=C1[C@H](CC[C@H](O)c2ccc(F)cc2)[C@@H](c2ccc(-c3cc(O)ccc3Br)cc2)N1c1ccc(F)cc1` [Example 19, (3R,4S)-4-(2′-bromo-5′-hydroxybiphenyl-4-yl)-1-(4-fluorophenyl)-3-[(3S)-3-(4-fluorophenyl)-3-hydroxypropyl]azetidin-2-one] the value was 66%.
Turning to `O=C1[C@H](CC[C@H](O)c2ccc(F)cc2)[C@@H](c2ccc(-c3ccccc3)cc2)N1c1ccc(F)cc1` [Example 3, (3R,4S)-4-Biphenyl-4-yl-1-(4-fluorophenyl)-3-[(3S)-3-(4-fluorophenyl)-3-hydroxypropyl]azetidin-2-one], the “% inhibition at 10 mg/kg” value in data set [1] is listed as 15^1%.
`O=C(O)c1cc(-c2ccc([C@@H]3[C@@H](CC[C@H](O)c4ccc(F)cc4)C(=O)N3c3ccc(F)cc3)cc2)ccc1O` [Example 106, 4′-{(2S,3R)-1-(4-fluorophenyl)-3-[(3S)-3-(4-fluorophenyl)-3-hydroxypropyl]-4-oxoazetidin-2-yl}-4-hydroxybiphenyl-3-carboxylic Acid] had an inhibition in vivo at 1 mg/kg in data set [1] of 66%.
In data set [1], `O=C1[C@H](CC[C@H](O)c2ccc(F)cc2)[C@@H](c2ccc(-c3ccc(O)cc3)cc2O)N1c1ccccc1` [Example 125, (3R,4S)-4-(3,4′-dihydroxybiphenyl-4-yl)-3-[(3S)-3-(4-fluorophenyl)-3-hydroxypropyl]-1-phenylazetidin-2-one] came in with an inhibition in vivo at 1 mg/kg of 64%.
On the same count and under the same terms, for `O=C1[C@H](CC[C@H](O)c2ccc(F)cc2)[C@@H](c2ccc(Br)cc2)N1c1ccccc1` [Example 46, (3R,4S)-4-(4-Bromophenyl)-3-[(3S)-3-(4-fluorophenyl)-3-hydroxypropyl]-1-phenylazetidin-2-one] the value was 30%; for `O=C1[C@H](CC[C@H](O)c2ccc(F)cc2)[C@@H](c2ccc(-c3cccc(O)c3)cc2)N1c1ccccc1` [Example 57, (3R,4S)-3-[(3S)-3-(4-Fluorophenyl)-3-hydroxypropyl]-4-(3′-hydroxybiphenyl-4-yl)-1-phenylazetidin-2-one], 73%; for `CSc1cccc(-c2ccc([C@@H]3[C@@H](CC[C@H](O)c4ccc(F)cc4)C(=O)N3c3ccc(F)cc3)cc2)c1` [Example 82, (3R,4S)-1-(4-fluorophenyl)-3-[(3S)-3-(4-fluorophenyl)-3-hydroxypropyl]-4-[3′-(methylthio)biphenyl-4-yl]azetidin-2-one], 28%.
Turning to `Cc1cc(C)cc(-c2ccc([C@@H]3[C@@H](CC[C@H](O)c4ccc(F)cc4)C(=O)N3c3ccc(F)cc3)cc2)c1` [Example 90, (3R,4S)-4-(3′,5′-dimethylbiphenyl-4-yl)-1-(4-fluorophenyl)-3-[(3S)-3-(4-fluorophenyl)-3-hydroxypropyl]azetidin-2-one], at 1 mg/kg the inhibition in vivo in data set [1] was 27%.
The same measure, in the same setting: to `Cc1cccc(-c2ccc([C@@H]3[C@@H](CC[C@H](O)c4ccc(F)cc4)C(=O)N3c3ccc(F)cc3)cc2)c1` [Example 93, (3R,4S)-1-(4-fluorophenyl)-3-[(3S)-3-(4-fluorophenyl)-3-hydroxypropyl]-4-(3′-methylbiphenyl-4-yl)azetidin-2-one] belongs 28%; to `O=C1[C@H](CC[C@H](O)c2ccc(F)cc2)[C@@H](c2ccc(-c3ccc(O)cc3)s2)N1c1ccccc1` [Example 51, (3R,4S)-3-[(3S)-3-(4-Fluorophenyl)-3-hydroxypropyl]-4-[5-(4-hydroxyphenyl)-2-thienyl]-1-phenylazetidin-2-one], 39%; to `O=C1[C@H](CC[C@H](O)c2ccc(F)cc2)[C@@H](c2ccc(-c3cccc(O)c3)cc2O)N1c1ccccc1` [Example 42, (3R,4S)-4-(3,3′-Dihydroxybiphenyl-4-yl)-3-[(3S)-3-(4-fluorophenyl)-3-hydroxypropyl]-1-phenylazetidin-2-one], 87%.
Still for that read-out and setting: to `CCCOc1cccc(-c2ccc([C@@H]3[C@@H](CC[C@H](O)c4ccc(F)cc4)C(=O)N3c3ccc(F)cc3)cc2)c1` [Example 103, (3R,4S)-1-(4-fluorophenyl)-3-[(3S)-3-(4-fluorophenyl)-3-hydroxypropyl]-4-(3′-propoxybiphenyl-4-yl)azetidin-2-one] belongs 21%.
On to `O=C1[C@H](CC[C@H](O)c2ccc(F)cc2)[C@@H](c2cccc(-c3cccc(O)c3)c2)N1c1ccc(F)cc1` [Example 44, (3R,4S)-1-(4-fluorophenyl)-3-[(3S)-3-(4-fluorophenyl)-3-hydroxypropyl]-4-(3′-hydroxybiphenyl-3-yl)azetidin-2-one], for which, in data set [1], the inhibition in vivo at 1 mg/kg came out at 24%.
